Experimental findings from patent US8017602B2, “N-(2-(2-(5-hydroxy-3-oxo-3,4-dihydro-2H-benzo[b][1,4]oxazin-8-yl)ethylamino)ethyl)-3-(phenethoxy)propanamide derivatives, processes for their preparation, pharmaceutical compositions containing them and their use in therapy” (AstraZeneca AB, priority 2008, dated 2011) are described below.

Counter-ions that a name gives are not always drawn.

The target of assay [1] is T1, recombinant human α1D receptor (Homo sapiens, UniProt P25100).
T1 construct: expressed in transfected cells; host or cells: HEK293
T1 sequence (P25100 1-572): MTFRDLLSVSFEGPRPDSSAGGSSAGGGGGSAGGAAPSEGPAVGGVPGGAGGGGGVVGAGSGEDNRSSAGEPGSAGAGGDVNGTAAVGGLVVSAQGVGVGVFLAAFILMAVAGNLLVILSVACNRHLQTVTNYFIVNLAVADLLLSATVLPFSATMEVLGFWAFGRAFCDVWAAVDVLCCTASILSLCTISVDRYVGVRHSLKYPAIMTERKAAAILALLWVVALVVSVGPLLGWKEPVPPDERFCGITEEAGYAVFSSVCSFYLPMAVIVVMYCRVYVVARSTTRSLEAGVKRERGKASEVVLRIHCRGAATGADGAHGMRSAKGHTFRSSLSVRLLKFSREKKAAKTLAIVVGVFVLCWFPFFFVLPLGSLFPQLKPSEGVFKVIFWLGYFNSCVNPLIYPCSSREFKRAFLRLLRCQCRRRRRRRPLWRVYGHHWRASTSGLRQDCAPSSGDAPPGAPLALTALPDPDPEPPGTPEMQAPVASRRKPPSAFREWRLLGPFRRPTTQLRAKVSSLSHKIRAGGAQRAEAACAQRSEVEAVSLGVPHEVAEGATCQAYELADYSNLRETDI
The assay can be described thus: Adrenergic α1D selectivity binding assay ([3H]-prazosin). The conditions noted are these: inhibition of [3H]-prazosin binding, HEK293 membranes, read-out: α1 bind pIC50 (converted). In a few lines: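 HEK293 membranes expressing human α1D were incubated 2 h at room temperature with 0.3 nM [3H]-prazosin in HEPES/EDTA pH 7.4 buffer. Nonspecific binding was defined with 10 μM BMY7378. After filtration and scintillation counting, pIC50 was derived by four-parameter logistic fit.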

Assay [2] addresses T2, recombinant human Dopamine Subtype D2s receptors (Homo sapiens, UniProt P14416).
T2 construct: purchased Perkin Elmer
Kind of assay: Dopamine D2 selectivity binding assay ([3H]-spiperone). The conditions noted are these: inhibition of [3H]-spiperone binding, human D2s membranes; read-out: D2 bind pIC50 (converted). In a few lines:
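Competition against 0.16 nM [3H]-spiperone on membranes with recombinant human D2s receptors in HEPES buffer pH 7.4 with NaCl and gelatin, 2 h at room temperature. Filtration and scintillation counting, non-specific binding from 10 μM haloperidol. pIC50 derived from a four-parameter logistic fit.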

T2 sequence (P14416 1-414 isoform P14416-2): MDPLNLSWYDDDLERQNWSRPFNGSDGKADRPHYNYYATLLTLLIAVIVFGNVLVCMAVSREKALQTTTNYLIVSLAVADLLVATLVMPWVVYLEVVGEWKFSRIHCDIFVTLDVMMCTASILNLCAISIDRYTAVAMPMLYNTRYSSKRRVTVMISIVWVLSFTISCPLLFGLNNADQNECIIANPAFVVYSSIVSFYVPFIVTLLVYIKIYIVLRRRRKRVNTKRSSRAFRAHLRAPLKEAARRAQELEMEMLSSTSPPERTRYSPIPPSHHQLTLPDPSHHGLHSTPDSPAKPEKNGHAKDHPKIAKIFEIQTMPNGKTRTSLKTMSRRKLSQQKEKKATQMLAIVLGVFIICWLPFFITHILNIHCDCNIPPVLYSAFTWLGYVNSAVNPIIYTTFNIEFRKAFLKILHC

For `Cc1c(-c2cccc(CCOCCC(=O)N(CCNCCc3ccc(O)c4c3OCC(=O)N4)C3CCCCC3)c2)cnn1C` [Example 37, N-Cyclohexyl-3-(3-(1,5-dimethyl-1H-pyrazol-4-yl)phenethoxy)-N-(2-(2-(5-hydroxy-3-oxo-3,4-dihydro-2H-benzo[b][1,4]oxazin-8-yl)ethylamino)ethyl)propanamide Trifluoroacetic Acid Salt], the IC50 in assay [1] is 1000 nM; in assay [2], 1580 nM.
